From paper PMC8249783, “A novel multikinase inhibitor SKLB‐YTH‐60 ameliorates inflammation and fibrosis in bleomycin‐induced lung fibrosis mouse models” (Cell Proliferation, 2021)
In brackets after ≈: the same amount, converted by molar mass. Like-named read-outs stand apart in the source and are kept apart here.

Assays:
Abl (h) = Abl (h) (Homo sapiens, UniProt P00519); assay: Kinase profile assay and IC50 test (Eurofins); format: biochemical; settings: double testing
Description: (§1) The in vitro kinase enzymatic inhibition assays were carried out by the Kinase Profiling Services provided by Eurofins (UK). The detailed protocol descriptions can be provided by the website (https://www.eurofinsdiscoveryservices.com).

FGFR1 (h) = FGFR1 (h) (Homo sapiens, UniProt P11362); assay: Kinase profile assay and IC50 test (Eurofins); format: biochemical; settings: double testing
Sequence of FGFR1 (h) (P11362 22-822): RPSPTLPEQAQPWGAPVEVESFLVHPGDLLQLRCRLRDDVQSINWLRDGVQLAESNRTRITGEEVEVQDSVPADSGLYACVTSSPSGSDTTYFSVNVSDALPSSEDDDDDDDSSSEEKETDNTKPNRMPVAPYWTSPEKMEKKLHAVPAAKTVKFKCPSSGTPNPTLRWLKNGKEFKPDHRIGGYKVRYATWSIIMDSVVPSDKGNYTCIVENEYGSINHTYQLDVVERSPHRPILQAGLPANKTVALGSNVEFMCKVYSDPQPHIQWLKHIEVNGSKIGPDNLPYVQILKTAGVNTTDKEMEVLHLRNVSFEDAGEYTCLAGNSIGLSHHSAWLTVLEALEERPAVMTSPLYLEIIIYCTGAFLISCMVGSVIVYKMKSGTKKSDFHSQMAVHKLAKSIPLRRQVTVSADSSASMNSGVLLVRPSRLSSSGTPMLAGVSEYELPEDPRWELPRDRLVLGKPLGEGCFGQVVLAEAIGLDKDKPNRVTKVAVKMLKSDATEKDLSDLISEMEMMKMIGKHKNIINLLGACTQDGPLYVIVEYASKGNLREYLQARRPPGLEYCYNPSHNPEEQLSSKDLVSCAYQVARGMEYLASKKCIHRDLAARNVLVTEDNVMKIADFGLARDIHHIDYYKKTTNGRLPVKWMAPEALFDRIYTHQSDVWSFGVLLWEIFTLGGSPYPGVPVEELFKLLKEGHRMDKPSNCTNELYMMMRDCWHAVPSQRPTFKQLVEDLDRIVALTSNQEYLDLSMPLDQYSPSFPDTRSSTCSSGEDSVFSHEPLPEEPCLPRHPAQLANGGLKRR
Description: as §1

FGFR2 (h) = FGFR2 (h) (Homo sapiens, UniProt P21802); assay: Kinase profile assay and IC50 test (Eurofins); format: biochemical; settings: double testing
Description: as §1

FGFR3 (h) = FGFR3 (h) (Homo sapiens, UniProt P22607); assay: Kinase profile assay and IC50 test (Eurofins); format: biochemical; settings: double testing
Sequence of FGFR3 (h) (P22607 23-806): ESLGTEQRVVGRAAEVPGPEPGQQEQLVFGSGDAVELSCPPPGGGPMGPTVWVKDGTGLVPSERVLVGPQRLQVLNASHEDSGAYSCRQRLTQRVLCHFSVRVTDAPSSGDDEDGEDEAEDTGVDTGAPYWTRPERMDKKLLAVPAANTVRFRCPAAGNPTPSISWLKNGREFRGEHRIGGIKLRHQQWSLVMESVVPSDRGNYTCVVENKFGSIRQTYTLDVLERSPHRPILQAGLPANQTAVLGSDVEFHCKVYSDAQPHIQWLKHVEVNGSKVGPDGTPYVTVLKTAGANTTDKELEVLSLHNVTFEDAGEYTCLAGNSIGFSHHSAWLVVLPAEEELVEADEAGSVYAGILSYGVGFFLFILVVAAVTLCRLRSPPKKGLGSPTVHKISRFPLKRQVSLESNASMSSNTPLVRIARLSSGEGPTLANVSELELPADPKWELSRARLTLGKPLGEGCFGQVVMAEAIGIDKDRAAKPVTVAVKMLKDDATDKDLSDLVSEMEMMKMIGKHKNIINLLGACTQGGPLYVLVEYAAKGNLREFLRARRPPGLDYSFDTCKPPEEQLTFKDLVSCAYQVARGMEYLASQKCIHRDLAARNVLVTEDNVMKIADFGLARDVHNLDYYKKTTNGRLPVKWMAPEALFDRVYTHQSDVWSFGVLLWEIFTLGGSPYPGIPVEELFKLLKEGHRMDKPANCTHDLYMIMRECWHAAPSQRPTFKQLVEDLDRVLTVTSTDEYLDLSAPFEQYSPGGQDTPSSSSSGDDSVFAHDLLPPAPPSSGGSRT
Description: as §1

FGFR4 (h) = FGFR4 (h) (Homo sapiens, UniProt P22455); assay: Kinase profile assay and IC50 test (Eurofins); format: biochemical; settings: double testing
Description: as §1

Flt1 (h)/VEGFR1 = Flt1 (h)/VEGFR1 (Homo sapiens, UniProt P17948); assay: Kinase profile assay and IC50 test (Eurofins); format: biochemical; settings: double testing
Description: as §1

Flt3 (h) = Flt3 (h) (Homo sapiens, UniProt P36888); assay: Kinase profile assay and IC50 test (Eurofins); format: biochemical; settings: double testing
Description: as §1

Flt4 (h)/VEGFR3 = Flt4 (h)/VEGFR3 (Homo sapiens, UniProt P35916); assay: Kinase profile assay and IC50 test (Eurofins); format: biochemical; settings: double testing
Sequence of Flt4 (h)/VEGFR3 (P35916 25-1363): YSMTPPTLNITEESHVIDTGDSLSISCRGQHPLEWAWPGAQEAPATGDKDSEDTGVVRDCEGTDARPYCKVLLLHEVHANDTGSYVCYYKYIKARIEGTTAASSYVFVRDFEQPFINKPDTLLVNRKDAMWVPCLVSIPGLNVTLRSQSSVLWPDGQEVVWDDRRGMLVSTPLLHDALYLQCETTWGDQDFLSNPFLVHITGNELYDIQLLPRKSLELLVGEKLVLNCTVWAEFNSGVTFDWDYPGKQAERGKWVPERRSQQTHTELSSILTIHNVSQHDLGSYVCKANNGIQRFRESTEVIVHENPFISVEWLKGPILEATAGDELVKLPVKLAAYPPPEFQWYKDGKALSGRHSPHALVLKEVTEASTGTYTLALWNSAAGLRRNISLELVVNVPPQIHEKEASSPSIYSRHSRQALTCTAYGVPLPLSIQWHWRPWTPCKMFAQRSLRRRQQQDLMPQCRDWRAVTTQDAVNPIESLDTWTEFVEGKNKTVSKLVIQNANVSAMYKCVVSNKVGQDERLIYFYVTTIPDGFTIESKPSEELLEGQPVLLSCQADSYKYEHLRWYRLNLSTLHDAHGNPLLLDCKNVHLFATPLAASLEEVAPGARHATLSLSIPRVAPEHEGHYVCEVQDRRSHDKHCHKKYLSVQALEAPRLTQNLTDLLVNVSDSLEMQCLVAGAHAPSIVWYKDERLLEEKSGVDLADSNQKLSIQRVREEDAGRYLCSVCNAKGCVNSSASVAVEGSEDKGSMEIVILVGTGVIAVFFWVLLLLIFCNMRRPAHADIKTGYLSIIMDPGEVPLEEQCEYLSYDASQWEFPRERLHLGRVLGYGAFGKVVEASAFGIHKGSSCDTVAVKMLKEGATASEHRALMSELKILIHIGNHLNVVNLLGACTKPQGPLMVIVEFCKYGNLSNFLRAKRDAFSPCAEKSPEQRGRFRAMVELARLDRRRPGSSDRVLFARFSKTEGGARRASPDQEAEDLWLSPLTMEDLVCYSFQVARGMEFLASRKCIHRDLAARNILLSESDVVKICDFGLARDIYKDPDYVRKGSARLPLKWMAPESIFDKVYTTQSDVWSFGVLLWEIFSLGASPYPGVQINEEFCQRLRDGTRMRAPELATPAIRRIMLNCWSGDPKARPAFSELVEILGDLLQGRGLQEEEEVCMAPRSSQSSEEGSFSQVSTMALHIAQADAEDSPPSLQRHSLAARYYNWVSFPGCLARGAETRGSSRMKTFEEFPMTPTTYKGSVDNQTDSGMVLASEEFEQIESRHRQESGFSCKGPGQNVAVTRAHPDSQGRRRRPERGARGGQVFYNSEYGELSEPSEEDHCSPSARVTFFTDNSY
Description: as §1

KDR (h)/VEGFR2 = KDR (h)/VEGFR2 (Homo sapiens, UniProt P35968); assay: Kinase profile assay and IC50 test (Eurofins); format: biochemical; settings: double testing
Description: as §1

PDGFRα (h) = PDGFRα (h) (Homo sapiens, UniProt P16234); assay: Kinase profile assay and IC50 test (Eurofins); format: biochemical
Sequence of PDGFRα (h) (P16234 24-1089): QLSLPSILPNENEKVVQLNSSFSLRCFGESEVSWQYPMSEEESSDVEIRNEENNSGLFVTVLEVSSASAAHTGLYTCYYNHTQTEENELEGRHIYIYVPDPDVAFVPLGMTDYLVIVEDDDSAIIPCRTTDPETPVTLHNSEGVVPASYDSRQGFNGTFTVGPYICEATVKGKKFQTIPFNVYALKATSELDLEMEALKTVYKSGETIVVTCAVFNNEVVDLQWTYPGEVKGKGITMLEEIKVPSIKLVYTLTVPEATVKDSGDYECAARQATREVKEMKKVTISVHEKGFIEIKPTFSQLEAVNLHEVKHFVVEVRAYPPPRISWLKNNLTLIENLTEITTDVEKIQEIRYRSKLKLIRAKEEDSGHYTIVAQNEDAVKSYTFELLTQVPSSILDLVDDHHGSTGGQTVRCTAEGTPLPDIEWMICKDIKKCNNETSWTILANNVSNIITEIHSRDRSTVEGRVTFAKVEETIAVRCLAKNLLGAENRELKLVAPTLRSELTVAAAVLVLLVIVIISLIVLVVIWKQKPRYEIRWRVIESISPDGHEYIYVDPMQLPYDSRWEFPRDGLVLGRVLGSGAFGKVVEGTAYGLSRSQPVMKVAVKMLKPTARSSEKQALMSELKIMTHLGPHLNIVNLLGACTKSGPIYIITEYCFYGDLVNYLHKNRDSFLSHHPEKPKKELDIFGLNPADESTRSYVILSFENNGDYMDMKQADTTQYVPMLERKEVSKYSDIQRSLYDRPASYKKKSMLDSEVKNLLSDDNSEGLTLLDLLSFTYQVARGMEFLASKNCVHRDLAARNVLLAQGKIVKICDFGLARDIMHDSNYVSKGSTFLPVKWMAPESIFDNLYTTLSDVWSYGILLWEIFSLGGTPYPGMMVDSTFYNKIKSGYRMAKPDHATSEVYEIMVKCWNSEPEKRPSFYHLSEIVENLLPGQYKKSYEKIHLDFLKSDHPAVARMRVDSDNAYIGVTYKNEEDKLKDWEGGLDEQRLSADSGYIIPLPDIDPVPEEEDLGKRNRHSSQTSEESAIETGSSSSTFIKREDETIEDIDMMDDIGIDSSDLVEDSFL
Description: as §1

PDGFRβ (h) = PDGFRβ (h) (Homo sapiens, UniProt P09619); assay: Kinase profile assay and IC50 test (Eurofins); format: biochemical
Sequence of PDGFRβ (h) (P09619 33-1106): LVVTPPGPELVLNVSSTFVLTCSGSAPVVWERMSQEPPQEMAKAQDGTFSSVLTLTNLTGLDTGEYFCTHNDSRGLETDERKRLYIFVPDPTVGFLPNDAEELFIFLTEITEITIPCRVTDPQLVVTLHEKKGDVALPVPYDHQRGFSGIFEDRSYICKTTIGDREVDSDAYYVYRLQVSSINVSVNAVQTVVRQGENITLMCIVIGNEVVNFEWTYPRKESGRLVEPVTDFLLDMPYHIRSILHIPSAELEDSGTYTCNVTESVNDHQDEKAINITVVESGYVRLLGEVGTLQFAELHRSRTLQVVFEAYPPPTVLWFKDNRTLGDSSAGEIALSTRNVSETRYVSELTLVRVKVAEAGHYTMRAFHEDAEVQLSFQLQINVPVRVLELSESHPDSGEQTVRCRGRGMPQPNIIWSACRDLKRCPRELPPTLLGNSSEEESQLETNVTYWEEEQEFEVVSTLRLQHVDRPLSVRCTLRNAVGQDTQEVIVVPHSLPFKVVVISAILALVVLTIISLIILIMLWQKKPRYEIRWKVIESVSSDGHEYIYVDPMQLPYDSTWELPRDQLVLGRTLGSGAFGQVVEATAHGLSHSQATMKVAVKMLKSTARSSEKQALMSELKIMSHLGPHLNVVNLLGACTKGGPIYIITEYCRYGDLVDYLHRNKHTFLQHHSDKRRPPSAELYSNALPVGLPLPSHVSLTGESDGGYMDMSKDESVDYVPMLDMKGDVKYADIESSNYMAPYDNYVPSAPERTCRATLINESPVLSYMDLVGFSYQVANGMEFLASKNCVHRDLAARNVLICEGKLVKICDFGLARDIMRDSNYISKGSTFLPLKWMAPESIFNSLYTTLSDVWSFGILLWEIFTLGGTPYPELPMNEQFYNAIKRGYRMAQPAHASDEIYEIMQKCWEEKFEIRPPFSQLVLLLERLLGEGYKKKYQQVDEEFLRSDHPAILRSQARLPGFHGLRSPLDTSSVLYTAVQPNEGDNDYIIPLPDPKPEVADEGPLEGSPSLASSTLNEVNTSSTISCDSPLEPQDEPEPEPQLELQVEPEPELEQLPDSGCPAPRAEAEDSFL
Description: as §1

Src (1‐530) (h) = target: T1, Src (1‐530) (h) (Homo sapiens, UniProt P12931); assay: Kinase profile assay and IC50 test (Eurofins); format: biochemical; settings: double testing
T1 construct: Src (1‐530) (h)
Description: as §1

[1] = Determination of thermodynamic solubility; format: physicochemical; settings: for solubility at 5 min: thermodynamic from solid, double testing
Description: Weigh about 1 mg of the test compound into 1.5 mL centrifuge tube and add 0.5 mL various solvents, sonicating for 5 minutes (if the compound is completely dissolved, then added again test compound until a little solid remains). Take the supernatant after centrifugation, diluting to a suitable concentration using and measuring absorbance values by UV spectrophotometer. Weigh 10 mg compound accurately of the test compound into 1.5 mL centrifuge tube and add 1.2 mL methanol solution to prepare 8.3 mg·mL^−1 mother solution. Take the above described mother liquor to prepare the solution in concentrations of 8.3, 4.2, 2.1, 1.0, 0.52, 0.26 mg·mL^−1 then measure absorbance value. With concentration c (mg·mL^−1) as the abscissa, absorbance A as the ordinate, mapping and fitting line to get the standard curve (The correlation coefficient should be greater than 0.998). Calculate solubility according to the standard curve of the linear equation.

[2] = test system: Human pulmonary fibroblasts (HPF); assay: Cell viability assay (CCK8); format: cell-based; settings: 24‐72 hours
Description: (§2) The cell viability of YTH‐60 and Nintedanib treatment was performed by MTT and CCK8 assay. Briefly, the exponentially growing cells were seeded in 96‐well (2‐5 × 10^3 cells·well^−1) and cultured for 24 hours. The cells were treated with different concentrations of YTH‐60 (0, 0.625, 1.25, 2.5, 5, 10 µmol·L^−1), after treatment for 24, 48 and 72 hours, respectively, a volume of 20 μL of 5 mg·mL^−1 MTT solution or 10 μL CCK‐8 solution was added to each well and incubation for 2‐4 hours at 37°C. Finally, the 96‐well plates were read on Multiskan FC microplate spectrophotometer at 570 or 450 nm wavelength.

[3] = test system: MRC‐5 human embryo lung fibroblast; assay: Cell viability assay (CCK8); format: cell-based; settings: MRC‐5, 24‐72 hours
Description: as §2

[4] = test system: NIH‐3T3 (mouse embryonic fibroblast); assay: Cell viability assay (CCK8); format: cell-based; settings: NIH‐3T3, 24‐72 hours
Description: as §2

[5] = test system: BLM‐induced pulmonary fibrosis; assay: BLM‐induced pulmonary fibrosis mouse model, preventive treatment; format: in vivo, C57BL/6 mice; settings: mice, day 14
Description: (§3) Male C57BL/6 mice (8‐10 weeks old) were purchased from HFK Bioscience Co. Ltd. All animal experiments were permitted by the Institutional Animal Care and Treatment Committee of Sichuan University in China (New Permit Number: 20190524003). Lung fibrosis was induced using BLM treatment (2 mg·kg^−1). All C57BL/6 mice were divided into five groups (n = 10): a BLM + Nintedanib group (Nintedanib, 30 mg·kg^−1), a BLM + YTH‐60 group (YTH‐60, 15 mg·kg^−1 and 30 mg·kg^−1), a control group (Sham), and a bleomycin group (Vehicle). At the beginning, the mice were anaesthetized using 10% chloral hydrate, dissolved BLM with saline and administered intratracheally. To evaluate the preventive effect, the next day after BLM challenge, YTH‐60 and Nintedanib were administered intraperitoneally daily for 13 days (fibroproliferation) to the mice. All mice were sacrificed 24 hours after the last drug injection, the lungs and other organs were taken for the subsequent analysis. […]
The left lung was detached and immediately fixed in 4% paraformaldehyde for 72 hours and then embed with paraffin wax. […] Ashcroft scoring was used to examine the severity of pulmonary fibrosis. ^20 The image analysis‐based system to quantify collagen deposition was described previously. ^21 […]

[6] = test system: BLM‐induced pulmonary fibrosis; assay: BLM‐induced pulmonary fibrosis mouse model, therapeutic treatment (day 7 to 14); format: in vivo, C57BL/6 mice; settings: mice, 30 mg·kg^−1 i.p. from day 7 to 14
Description: as §3
The left lung was detached and immediately fixed in 4% paraformaldehyde for 72 hours and then embed with paraffin wax. […] Ashcroft scoring was used to examine the severity of pulmonary fibrosis. ^20 The image analysis‐based system to quantify collagen deposition was described previously. ^21

IC50 (Abl (h)): 27 nM
IC50 (FGFR1 (h)): 4 nM
IC50 (FGFR2 (h)): 7 nM
IC50 (FGFR3 (h)): 9 nM
IC50 (FGFR4 (h)): 424 nM
IC50 (Flt1 (h)/VEGFR1): 123 nM
IC50 (Flt3 (h)): 297 nM
IC50 (Flt4 (h)/VEGFR3): 64 nM
IC50 (KDR (h)/VEGFR2): 61 nM
kinase inhibition (in words) (PDGFRα (h)): relatively weak kinase inhibition
IC50 (PDGFRα (h); double testing): 921 nM
kinase inhibition (in words) (PDGFRβ (h)): relatively weak kinase inhibition
IC50 (PDGFRβ (h); double testing): > 3 µM
IC50 (Src (1‐530) (h)): 633 nM
solubility compared with Nintedanib (in words) [1]: better solubility than Nintedanib
solubility at 5 min ([1]; organic solvent or mixture, Acetone, read-out: Solubility, Acetone): 83.1 ± 0.89 mg/mL (≈ 140 mM)
solubility at 5 min ([1]; organic solvent or mixture, Acetonitrile, read-out: Solubility, Acetonitrile): 18.3 ± 1.2 mg/mL (≈ 30.8 mM)
solubility at 5 min ([1]; organic solvent or mixture, Ethyl acetate, read-out: Solubility, Ethyl acetate): 101 ± 4.02 mg/mL (≈ 170 mM)
solubility at 5 min ([1]; organic solvent or mixture, Ethyl alcohol, read-out: Solubility, Ethyl alcohol): 77 ± 1.53 mg/mL (≈ 130 mM)
solubility at 5 min ([1]; saline or isotonic, Normal saline, read-out: Solubility, Normal saline): 12.7 ± 0.15 mg/mL (≈ 21.4 mM)
solubility at 5 min ([1]; Water, read-out: Solubility, Water): 1.71 ± 0.14 mg/mL (≈ 2.88 mM)
SMILES: COc1cc(OC)c(Cl)c(-c2ccc3c(/C=C/c4ccc(N(C)C(=O)CN5CCN(C)CC5)cc4)n[nH]c3c2)c1Cl [YTH‐60, (E)‐N‐(4‐(2‐(6‐(2,6‐dichloro‐3,5‐dimethoxyphenyl)‐1H‐indazol‐3‐yl)vinyl)phenyl)‐N‐methyl‐2‐(4‐methylpiperazin‐1‐yl)acetamide]
cell proliferation / viability (in words) [2]: inhibits cell proliferation in a time‐ and concentration‐dependent manner
cell proliferation / viability (in words) [3]: inhibits cell proliferation in a time‐ and concentration‐dependent manner
cell proliferation / viability (in words) [4]: inhibits cell proliferation in a time‐ and concentration‐dependent manner
preventive effect on BLM‐induced pulmonary fibrosis (in words) ([5]; 15 mg·kg^−1 i.p.): less effective
preventive effect on BLM‐induced pulmonary fibrosis (in words) ([5]; 30 mg·kg^−1 i.p.): good preventive effect
therapeutic effect on BLM‐induced lung fibrosis (in words) [6]: good therapeutic effect
